Read-outs that look alike come from different tables or passages of the source. One block for each compound: values may come before it.
Legend:
[1] = Biodistribution of i.v. administered radioiodinated compounds in balb/c mice; settings: for Bone-seeking properties: mouse, in vivo; for Discomfort or toxicity after administration of samples: single bolus tail vein injection, 100 μl;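 on all read-outs here: healthy mice given radioiodinated bisphosphonic acids, with randomly chosen groups of three animals per time point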
Method: Mice. Samples of 100 μl containing 50,100, 400, 140 or 45 KBq of 31a, 34a, 46a, 67a or 72a, respectively, were injected into the tail veins as single bolus injections. […] At 0.5 h, 2 h, 5 h and 24 h postinjection times the animals were sacrificed; except in the case of the phosphate phosphonate derivative 31 were the animals were sacrificed 0.25 h, 2 h, 5 h and 24 h postinjection. Randomly selected groups of three animals were used at each time point. The whole animals were weighed and dissected. The excised organs, i.e. femur, skull, blood, heart, lung, liver, kidney, spleen, stomach, large intestine and small intestine, were weighed separately prior to counting.
Radioactivity measurements of the labelled compounds were carried out with a liquid scintillation counter (Beckman LS 6500, Beckman Instruments, USA) or with a Capintec CRC-7R radioisotope calibrator (Capintec, USA). The radioactivity level of the excised organs was measured with an automated gamma counter (LKB Wallac 1282, Turku, Finland).

OHS cells = settings: 60 days; ^153Sm-EDTMP 800 MBq/kg, ^89Sr 20 MBq/kg, ifosfamide 150 mg/kg; cited from earlier work
MT-1 cells = settings: repeated treatments (days 7 and 14); cited from earlier work
[2] = Swiss Webster mice, 20-25 g, 47 h; cited from earlier work
[3] = Sprague-Dawley rats, 220 g, 24 h; cited from earlier work
[4] = balb/c mice, 19-22 g, cited from earlier work

- Uptake in femur ([1]; 2 h postinjection (peak), i.v.): 21±4 % ID/g
- Uptake in femur ([1]; 24 h postinjection, i.v.): 15±5 % ID/g
Compound: O=P(O)(O)C(Cc1ccccc1)P(=O)(O)O [2h, phenylethylidenebisphosphonic acid]

Compound: O=P(O)(O)C(Cc1cccc([125I])c1)P(=O)(O)O [34a, m-[^125I and ^131I]-iodophenylethylidene-1,1-bisphosphonic Acid]
- Uptake in femur ([1]; 0.5 h (30 min) postinjection, i.v.): 18.8±0.51 % ID/g
- Activity in blood ([1]; 0.5 h postinjection, i.v.): 2.22±0.31 % ID/g
- Uptake in kidneys ([1]; 0.5 h postinjection, i.v.): 8.23±6.39 % ID/g
- Uptake in skull ([1]; 0.5 h postinjection, i.v.): 10.28±2.58 % ID/g
- Femur to soft tissue ratio ([1]; 24 h, soft tissue with highest uptake): > 14
- Uptake in femur ([1]; 24 h postinjection, i.v.): 15.25±4.89 % ID/g
- Uptake in kidneys ([1]; 24 h postinjection, i.v.): 1.06±0.10 % ID/g
- Uptake in skull ([1]; 24 h postinjection, i.v.): 7.13±2.73 % ID/g
- Bone-seeking properties [1]: potent bone-seekers
- Discomfort or toxicity after administration of samples [1]: No sign of discomfort or toxicity was observed

Compound: O=P(O)(O)C(NCCc1cccc([131I])c1)P(=O)(O)O [67a, N-(m-[^131I]-iodophenylethyl)aminomethylene-bisphosphonic acid]
- Uptake in femur ([1]; 24 h postinjection, i.v.): 1.39±0.43 % ID/g
- Uptake in liver ([1]; 24 h postinjection, i.v.): 5.57±0.79 % ID/g
- Uptake in skull ([1]; 24 h postinjection, i.v.): 0.91±0.08 % ID/g
- Uptake in spleen ([1]; 24 h postinjection, i.v.): 2.49±0.37 % ID/g
- Bone-seeking properties [1]: lack bone seeking properties
- Discomfort or toxicity after administration of samples [1]: No sign of discomfort or toxicity was observed

Compound: O=P(O)(O)C(CCc1cccc([131I])c1)P(=O)(O)O [72a, 3-(m-iodo-[^131I and ^125I]-phenyl)propylidene-1,1-bisphosphonic acid]
- Uptake in femur ([1]; 24 h postinjection, i.v.): 8.84±0.97 % ID/g
- Uptake in kidneys ([1]; 24 h postinjection, i.v.): 0.85±0.08 % ID/g
- Uptake in liver ([1]; 24 h postinjection, i.v.): 0.35±0.06 % ID/g
- Uptake in skull ([1]; 24 h postinjection, i.v.): 10.36±4.26 % ID/g
- Bone-seeking properties [1]: potent bone-seekers
- Discomfort or toxicity after administration of samples [1]: No sign of discomfort or toxicity was observed

Compound: [89Sr] [^89Sr]
- Survival rate / disease-free rats (OHS cells): 20%
- Surviving / disease-free rats of rats treated (OHS cells): 2 of 10

Compound: N.N.[Cl][Pt][Cl] [cisplatin]
- Effect on the metastatic growth (MT-1 cells): nor did they have any significant effect on the metastatic growth
- Survival after repeated treatments (MT-1 cells): have not improved survival

Compound: O=P(O)(O)C(O)(c1cccc(I)c1)P(=O)(O)O [compound 2]
- Ratio between uptake in femur and stomach [2]: 1.7 (femur/stomach, Swiss Webster
- Uptake in femur expressed as % gram dose per gram tissue [2]: 299 (Swiss Webster mice, 20-25 g, 47 h) % gram dose per gram tissue
- Uptake in stomach [2]: 7.65 ± 0.02 % ID/g
- Uptake in the thyroid [2]: 0.414 ± 0.147 % injected dose/organ

Compound: O=P(O)(O)C(c1ccc(O)c(I)c1)P(=O)(O)O [compound 3]
- Ratio between uptake in femur and kidney [3]: 1.5 (femur/kidney, Sprague-Dawley
- Uptake in femur expressed as % gram dose per gram tissue [3]: 438 (Sprague-Dawley rats, 220 g, 24 h) % gram dose per gram tissue
- Uptake in the thyroid [3]: 3829 (% ID/g,

Compound: O=C(NCCC(O)(P(=O)(O)O)P(=O)(O)O)c1cccc(I)c1 [compound 4]
- Uptake in femur expressed as % gram dose per gram tissue ([4]; 2 h): 702 (balb/c mice, 19-22 g, 2 h) % gram dose per gram tissue
- Ratio between uptake in femur and spleen ([4]; 24 h): 3.2 (femur/spleen, balb/c mice,
- Uptake in stomach ([4]; 24 h): 0.93 ± 0.95 % ID/g
- Uptake in the thyroid ([4]; 24 h): 0.45 ± 0.36 % injected dose/organ

Compound: COc1cccc2c1C(=O)c1c(O)c3c(c(O)c1C2=O)C[C@@](O)(C(=O)CO)C[C@@H]3O[C@H]1C[C@H](N)[C@H](O)[C@H](C)O1 [doxorubicin]
- Effect on the metastatic growth (MT-1 cells): nor did they have any significant effect on the metastatic growth
- Survival after repeated treatments (MT-1 cells): have not improved survival

Compound: O=P1(NCCCl)OCCCN1CCCl (stereo not drawn) [ifosfamide]
- Survival rate / disease-free rats (OHS cells): 20%
- Surviving / disease-free rats of rats treated (OHS cells): 3 of 15

Compound: ^153Sm-EDTMP
- Survival rate / disease-free rats (OHS cells): 62%
- Surviving / disease-free rats of rats treated (OHS cells): 8/13

From patent publication US6548042B2, “Bis-phosphonate compounds” (priority 2000, dated 2003)
